According to ChEMBL document CHEMBL1649467, “Impact of human serum albumin on oritavancin in vitro activity against enterococci” (Antimicrob Agents Chemother, 2009):
Values after ≈ are worked out from the molar mass of the structure shown.

Columns and labels:
Enterococcus faecalis [1] = test: Bactericidal activity against vancomycin-resistant Enterococcus faecalis ATCC 51299 expressing vanB gene assessed as change in bacterial count at 32 ug/ml by time-kill assay; assay type: functional
Enterococcus faecalis [2] = test: Antimicrobial activity against vancomycin-resistant Enterococcus faecalis 1058946 by broth dilution method in presence of 4% HSA; assay type: functional
Enterococcus faecalis [3] = test: Antimicrobial activity against vancomycin-resistant Enterococcus faecalis 1058946 by broth dilution method; assay type: functional
Enterococcus faecalis [4] = test: Bactericidal activity against vancomycin-susceptible Enterococcus faecalis ATCC 29212 assessed as change in bacterial count at 2 ug/ml by time-kill assay; assay type: functional
Enterococcus faecium [5] = test: Antimicrobial activity against vancomycin-resistant Enterococcus faecium 1059060 by broth dilution method; assay type: functional
Enterococcus faecium [6] = test: Antimicrobial activity against vancomycin-resistant Enterococcus faecium 1119175 by broth dilution method in presence of 4% HSA; assay type: functional
Enterococcus faecium [7] = test: Bactericidal activity against vancomycin-resistant Enterococcus faecium ATCC 51559 expressing vanA gene assessed as change in bacterial count at 2 ug/ml by time-kill assay; assay type: functional
Enterococcus faecalis [8] = test: Selectivity ratio of MIC for Enterococcus faecalis ATCC 29212 in presence of 4% HSA to MIC for Enterococcus faecalis ATCC 29212; assay type: functional
[9] = Cmax in healthy human male at 200 mg, iv every 24 hrs by LC/MS/MS analysis; assay type: ADME, organism-based; set-up: dose 200 mg, route intravenous; settings: in vivo
Enterococcus faecalis [10] = test: Antimicrobial activity against vancomycin-resistant Enterococcus faecalis ATCC 51299 by broth dilution method; assay type: functional
Enterococcus faecalis [11] = test: Bactericidal activity against vancomycin-susceptible Enterococcus faecalis ATCC 29212 assessed as change in bacterial count at 32 ug/ml by time-kill assay; assay type: functional
Enterococcus faecium [12] = test: Antimicrobial activity against vancomycin-resistant Enterococcus faecium 1059060 by broth dilution method in presence of 4% HSA; assay type: functional
Enterococcus faecium [13] = test: Bactericidal activity against vancomycin-resistant Enterococcus faecium 1119175 expressing vanB gene assessed as change in bacterial count at 2 ug/ml by time-kill assay; assay type: functional
Enterococcus faecium [14] = test: Selectivity ratio of MIC for Enterococcus faecium ATCC 51559 in presence of 4% HSA to MIC for Enterococcus faecium ATCC 51559; assay type: functional
Enterococcus faecium [15] = test: Antimicrobial activity against vancomycin-resistant Enterococcus faecium ATCC 51559 by broth dilution method; assay type: functional
Enterococcus faecium [16] = test: Bactericidal activity against vancomycin-resistant Enterococcus faecium 1059060 expressing vanA gene assessed as change in bacterial count at 2 ug/ml by time-kill assay; assay type: functional
[17] = Free fraction in healthy human male at 200 mg, iv every 24 hrs by LC/MS/MS analysis; assay type: ADME, organism-based; settings: in vivo
Enterococcus faecalis [18] = test: Antimicrobial activity against vancomycin-susceptible Enterococcus faecalis ATCC 29212 by broth dilution method; assay type: functional
Enterococcus faecalis [19] = test: Bactericidal activity against vancomycin-resistant Enterococcus faecalis 1058946 expressing vanA gene assessed as change in bacterial count at 32 ug/ml by time-kill assay; assay type: functional
Enterococcus faecalis [20] = test: Selectivity ratio of MIC for Enterococcus faecalis 1058946 in presence of 4% HSA to MIC for Enterococcus faecalis 1058946; assay type: functional
Enterococcus faecalis [21] = test: Selectivity ratio of MIC for Enterococcus faecalis ATCC 51299 in presence of 4% HSA to MIC for Enterococcus faecalis 51299; assay type: functional
Enterococcus faecalis [22] = test: Antimicrobial activity against vancomycin-susceptible Enterococcus faecalis ATCC 29212 by broth dilution method in presence of 4% HSA; assay type: functional
Enterococcus faecium [23] = test: Antimicrobial activity against vancomycin-resistant Enterococcus faecium ATCC 51559 by broth dilution method in presence of 4% HAS; assay type: functional
Enterococcus faecalis [24] = test: Antimicrobial activity against vancomycin-resistant Enterococcus faecalis ATCC 51299 by broth dilution method in presence of 4% HSA; assay type: functional
Enterococcus faecium [25] = test: Bactericidal activity against vancomycin-resistant Enterococcus faecium 1059060 expressing vanA gene assessed as change in bacterial count at 32 ug/ml by time-kill assay; assay type: functional
Enterococcus faecalis [26] = test: Bactericidal activity against vancomycin-resistant Enterococcus faecalis 1058946 expressing vanA gene assessed as change in bacterial count at 2 ug/ml by time-kill assay; assay type: functional
Enterococcus faecium [27] = test: Selectivity ratio of MIC for Enterococcus faecium 1059060 in presence of 4% HSA to MIC for Enterococcus faecium 1059060; assay type: functional
Enterococcus faecalis [28] = test: Bactericidal activity against vancomycin-resistant Enterococcus faecalis ATCC 51299 expressing vanB gene assessed as change in bacterial count at 2 ug/ml by time-kill assay; assay type: functional
Enterococcus faecium [29] = test: Antimicrobial activity against vancomycin-resistant Enterococcus faecium 1119175 by broth dilution method; assay type: functional
Enterococcus faecium [30] = test: Bactericidal activity against vancomycin-resistant Enterococcus faecium ATCC 51559 expressing vanA gene assessed as change in bacterial count at 32 ug/ml by time-kill assay; assay type: functional
Enterococcus faecium [31] = test: Bactericidal activity against vancomycin-resistant Enterococcus faecium 1119175 expressing vanB gene assessed as change in bacterial count at 32 ug/ml by time-kill assay; assay type: functional

## CN[C@H](CC(C)C)C(=O)N[C@H]1C(=O)N[C@@H](CC(N)=O)C(=O)N[C@H]2C(=O)N[C@H]3C(=O)N[C@H](C(=O)N[C@H](C(=O)O)c4cc(O)cc(O)c4-c4cc3ccc4O)[C@H](O[C@H]3C[C@](C)(N)[C@@H](O)[C@H](C)O3)c3ccc(c(Cl)c3)Oc3cc2cc(c3O[C@@H]2O[C@H](CO)[C@@H](O)[C@H](O)[C@H]2O[C@H]2C[C@](C)(NCc3ccc(-c4ccc(Cl)cc4)cc3)[C@@H](O)[C@H](C)O2)Oc2ccc(cc2Cl)[C@H]1O [ORITAVANCIN]
Enterococcus faecalis [1]
  log10CFU/ml: -1.6
Enterococcus faecalis [2]
  MIC: 2 µg/mL
Enterococcus faecalis [3]
  MIC: 0.5 µg/mL (≈ 0.279 µM)
Enterococcus faecalis [4]
  log10CFU/ml: -0.48
Enterococcus faecium [5]
  MIC: 0.5 µg/mL (≈ 0.279 µM)
Enterococcus faecium [6]
  MIC: 0.01 µg/mL
Enterococcus faecium [7]
  log10CFU/ml: 1.1
Enterococcus faecalis [8]
  Ratio: 2
[9]
  Cmax: 32000 ng/mL
Enterococcus faecalis [10]
  MIC: 8 ng/mL (≈ 0.00446 µM)
Enterococcus faecalis [11]
  log10CFU/ml: -3.3
Enterococcus faecium [12]
  MIC: 4 µg/mL
Enterococcus faecium [13]
  log10CFU/ml: 1.5
Enterococcus faecium [14]
  Ratio: 2
Enterococcus faecium [15]
  MIC: 0.25 µg/mL (≈ 0.139 µM)
Enterococcus faecium [16]
  log10CFU/ml: 1
[17]
  fraction unbound at 24 h: 0.12
Enterococcus faecalis [18]
  MIC: 8 ng/mL (≈ 0.00446 µM)
Enterococcus faecalis [19]
  log10CFU/ml: -1.2
Enterococcus faecalis [20]
  Ratio: 4
Enterococcus faecalis [21]
  Ratio: 8
Enterococcus faecalis [22]
  MIC: 0.016 µg/mL
Enterococcus faecium [23]
  MIC: 0.5 µg/mL
Enterococcus faecalis [24]
  MIC: 0.06 µg/mL
Enterococcus faecium [25]
  log10CFU/ml: -0.85
Enterococcus faecalis [26]
  log10CFU/ml: 1.4
Enterococcus faecium [27]
  Ratio: 8
Enterococcus faecalis [28]
  log10CFU/ml: -1.2
Enterococcus faecium [29]
  MIC: 0.016 µg/mL (≈ 0.00892 µM)
Enterococcus faecium [30]
  log10CFU/ml: -1.2
Enterococcus faecium [31]
  log10CFU/ml: -1.4
